Assay in all cases: DTP human tumour cell line panel, 48 h
The subject of assay [1] is ACHN renal.
The subject of assay [2] is CAKI-1 renal.
The test system of assay [3] is EKVX NSCLC.
The subject of assay [4] is MALME-3M melanoma.
Assay [5] has as its system MOLT-4 leukemia.
Assay [6] has as its system OVCAR-3 ovarian.
The subject of assay [7] is OVCAR-5 ovarian.
The subject of assay [8] is RXF 393 renal.
The test system of assay [9] is SR leukemia.
Assay [10] deals with SW-620 colon.

“And” between values parts separate entries of the source, which are not always exact repeats. Equal values may be shown once.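 1) Cells in 96-well plates. 2) Compound, 48 h, 5 concentrations. 3) Linear interpolation between surrounding doses. 4) Unreached endpoint = highest concentration. Abbreviation: GI50, concentration required for 50% inhibition of growth. TGI is the concentration that stops growth completely.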

For `O=C(O)c1nc2nc(Cl)c(Cl)nc2[nH]1`, the TGI in assay [1], in [2], in [3], in [4], in assay [5] and in assay [6] was greater than 100 µM throughout. In addition, the concentration for total growth inhibition (TGI) in [7], in [8], in assay [9] and in [10] was greater than 100 µM each time.

For the molecule `CC(C)(C)c1cc2c(O)c3cccc4c(=O)c5cccc6c5-c(c34)c2c(c1)c6=O`, the concentration for total growth inhibition (TGI) in [1], in assay [2], in assay [3], in assay [4], in assay [5] and in assay [6] was greater than 100 µM throughout. Further, the total growth inhibition concentration (TGI) is greater than 100 µM in assay [7], 97.8 µM in assay [8], 30.4 µM in [9] and greater than 100 µM in assay [10].

For `Nc1n[nH]c2cc(F)c([C@@H]3Nc4ccc5[nH]ncc5c4[C@H]4C5CCC(C5)[C@@H]34)cc12` (stereo not given in full), the 50% growth inhibitory concentration (GI50) in assay [1] was 0.231 µM; in assay [2] it was 0.132 µM; in [3], 0.237 µM; in assay [4] it was 1.47 µM; in assay [5] it was 0.207 µM; in assay [6] it was 0.167 µM. For the same molecule, the GI50 was 0.326 µM in assay [7], 0.124 µM in [8], 0.125 µM in assay [9] and 0.188 µM in assay [10]. The TGI in assay [1] was 26.1 µM; in assay [2], 7.43 µM; in assay [3], 49.4 µM; in assay [4], 28.3 µM; in [5], greater than 50 µM; in assay [6], 6.35 µM. For the same molecule, the TGI in assay [7] is 24.4 µM; in [8], 2.52 µM; in assay [9], greater than 50 µM; in assay [10], greater than 25 µM.

Turning to `CC1(COc2ccc3c(c2)ncn3-c2ccc3cccc(N4CCC(N)CC4)c3n2)COC1`, the GI50 is 2.61 µM and 2.24 µM in [1]; 4.75 µM and 3.55 µM in assay [2]; 3.02 µM and 3.28 µM in [3]; 3.23 µM and 1.86 µM in assay [4]; 1.56 µM and 1.51 µM in assay [5]; 2.35 µM and 2.99 µM in assay [6]. In addition, the GI50 in assay [7] is 3.26 µM and 2.57 µM; in [8] it was 1.32 µM and 0.893 µM; in assay [9] it was 0.769 µM and 0.347 µM; in [10], 3.09 µM and 2.52 µM. Further, the TGI in assay [1] is greater than 10 µM; in [2], 19.6 µM and > 10 µM; in assay [3], 13.2 µM and > 10 µM; in [4] it was 6.46 µM and 3.74 µM; in assay [5], 5.71 µM and 5.97 µM; in [6], 4.73 µM and > 10 µM. Besides, the TGI in assay [7] was 12.8 µM and > 10 µM; in assay [8], 3.3 µM and 2.71 µM; in assay [9], 4.7 µM and 2.4 µM; in assay [10] it was 11 µM and > 10 µM.

For `O=C(Nc1ccc(Oc2ccc(Nc3nc4ccccc4s3)cc2)cc1)Nc1ccc(Cl)c(C(F)(F)F)c1`, the GI50 in assay [1] is 1.51 µM; in assay [2], 2.05 µM; in [3], 1.62 µM; in [4], 1.8 µM; in assay [6] it was 1.54 µM; in assay [7], 1.64 µM. The GI50 in assay [8] was 1.8 µM; in [9] it was 1.32 µM; in assay [10], 1.75 µM. Besides, the TGI worked out at 5.49 µM in assay [1]; 7.98 µM in assay [2]; 5.45 µM in [3]; 3.79 µM in [4]; 3.98 µM in assay [6]; 3.61 µM in assay [7]. For the same molecule, the TGI in [8] was found to be 4 µM; in [9], 5.81 µM; in assay [10] it was 3.54 µM.

As for `O=C(CCCSc1nc(-c2ccccc2)cc(-c2ccccc2)n1)NO`, the 50% growth inhibitory concentration (GI50) in assay [1] was 0.358 µM; in assay [2], 0.516 µM; in [3] it was 2.93 µM; in assay [4], 1.95 µM; in assay [5] it was 1.1 µM; in assay [6], 1.6 µM. Also, the GI50 in assay [7] was 1.37 µM; in assay [8] it was 0.525 µM; in assay [9] it was 0.38 µM; in assay [10], 0.777 µM. Also, the TGI in assay [1] is 1.5 µM; in [2], 6.46 µM; in assay [3], 14.5 µM; in assay [4], 9.71 µM; in assay [5] it was 10.2 µM; in [6] it was 6.16 µM. Moreover, the TGI in [7] came to 5.64 µM; in assay [8], 3.05 µM; in assay [9], 20.5 µM; in assay [10], 12.7 µM.

Regarding `Cc1cc(I)cc(CN(CCCN(C)C)C(C)C)c1O`, the GI50 in [1] was 17.3 µM; in assay [2], 16.5 µM; in assay [3] it was 18.3 µM; in [4], 21.6 µM; in assay [5] it was 16.3 µM; in assay [6] it was 18.8 µM. In addition, the GI50 was 19.7 µM in assay [7], 16 µM in assay [8], 15.9 µM in assay [9] and 17.3 µM in assay [10]. The total growth inhibition concentration (TGI) is 31.6 µM in assay [1]; 33.6 µM in assay [2]; 42.9 µM in [3]; 40.8 µM in [4]; 34.7 µM in assay [5]; 34.8 µM in assay [6]. Also, the TGI in assay [7] was found to be 53.5 µM; in assay [8], 46.8 µM; in assay [9], 35.8 µM; in assay [10], 31.6 µM.

Regarding `N#CC(C#N)=C/C=C(\Sc1nc2ccccc2s1)c1ccc(Cl)cc1`, the GI50 in assay [1] is 4.61 µM; in assay [2], 1.93 µM; in assay [3], 18.4 µM; in assay [4], 5.29 µM; in [5] it was 0.565 µM; in assay [6], 4.77 µM. Also, the GI50 is 7.02 µM in assay [7], 7.59 µM in [8], 0.844 µM in assay [9] and 0.41 µM in assay [10]. Also, the TGI in [1] is greater than 35.5 µM; in [2] it was 9.82 µM; in assay [3] it was 40 µM; in assay [4], 16.5 µM; in [6], 22.9 µM; in assay [7], 21.5 µM. Further, the TGI in assay [8] came to 25.9 µM.

As to `CCOC(=S)SCC(=O)O`, the TGI in assay [1], in assay [2], in assay [3], in [4], in [5] and in [6] was greater than 100 µM in each case. The TGI in [7], in [8], in [9] and in assay [10] was greater than 100 µM each time.

In the case of `Nc1n[nH]c2cccc(C#Cc3cccc(C(=O)Nc4ccc(CN5CCOCC5)c(C(F)(F)F)c4)c3)c12`, the GI50 in [1] was 2.63 µM; in assay [2], 3.2 µM; in assay [3] it was 3.42 µM; in assay [4], 0.446 µM; in assay [5] it was 1.4 µM; in [6], 3.48 µM. Besides, the GI50 in assay [7] is 2.52 µM; in assay [8] it was 1.53 µM; in assay [9], 1.97 µM; in [10], 2.89 µM. Besides, the TGI was 9.96 µM in assay [1]; 11.4 µM in assay [2]; 19 µM in assay [3]; 2.69 µM in assay [4]; 4.24 µM in [5]; 12.6 µM in [6]. The TGI in [7] was 19.8 µM; in [8] it was 3.44 µM; in assay [9], greater than 100 µM; in assay [10], 12.7 µM.

Take `O=C(/C(=C/c1ccc([N+](=O)[O-])cc1)SCc1ccccc1)c1ccc(Cl)cc1`: the GI50 in assay [1] was 1.97 µM; in [3], 6.77 µM; in [4], 3.12 µM; in [5], 2.61 µM; in [6], 1.91 µM; in assay [7], 2.98 µM. Besides, the figures for the GI50 in assay [8], in [9] and in assay [10] were 1.68 µM, 1.76 µM and 1.83 µM, respectively. For the same molecule, the TGI in assay [1] is 4.16 µM; in [3], 20.2 µM; in [4] it was 11.7 µM; in [5] it was greater than 100 µM; in [6] it was 4.29 µM; in assay [7], 11.9 µM. For the same molecule, the TGI in assay [8] is 3.47 µM; in [9], 6.63 µM; in assay [10], 4.15 µM.

In the case of `C/C(=C\CBr)CCC(Br)C(C)(C)Br` (stereo not given), the TGI in assay [1], in [3], in assay [4], in [5], in assay [6] and in [7] was greater than 100 µM each time. Besides, the TGI in [8], in [9] and in assay [10] was greater than 100 µM in each case.

Take `CC(=O)OCCOCNC(=S)N/N=C(\C)c1cnccn1`: the TGI is 86.3 µM in assay [1]; greater than 100 µM in assay [3]; greater than 100 µM in assay [4]; greater than 100 µM in assay [5]; greater than 100 µM in [6]; 40.5 µM in [7]. Besides, the concentration for total growth inhibition (TGI) in [8], in [9] and in assay [10] was greater than 100 µM each time.

With `O=S(=O)(c1ccccc1)N1CCN(S(=O)(=O)c2ccccc2)c2ccccc21`, the TGI in assay [1] was greater than 100 µM; in [2], greater than 100 µM; in assay [3], 80.1 µM; in assay [4] it was greater than 100 µM; in assay [6], greater than 100 µM; in assay [7], greater than 100 µM. Also, the TGI in [8], in [9] and in assay [10] was greater than 100 µM throughout.
